Measured values as given in patent US8758816B2, “Compositions comprising azelastine and methods of use thereof” (priority 2004, dated 2014).

Tested on: patients with seasonal allergic rhinitis (SAR)
Test: MP 428 study: adverse events, Safety Population
Format: in vivo, human
Protocol: A two-week, randomized, double-blind study, which evaluated the effects of the co-administration of ASTELIN® (azelastine hydrochloride (HCl)) and FLONASE® (fluticasone propionate) compared to either product alone in patients with seasonal allergic rhinitis (SAR) was conducted during the 2006 Texas mountain cedar season. After a 5-day placebo lead-in period, 151 patients with moderate-to-severe allergic rhinitis symptoms were randomized to either: (1) (49 total patients) ASTELIN® (azelastine hydrochloride (HCl)) plus placebo saline nasal spray 2 sprays per nostril, 15 minutes apart, twice daily (AM & PM); (2) (50 total patients) FLONASE® (fluticasone propionate) plus placebo saline nasal spray, 2 sprays per nostril, 15 minutes apart, once daily (AM) and two sessions of placebo saline nasal spray, 2 sprays per nostril, 15 minutes apart (PM); or (3) (52 total patients) the co-administration of ASTELIN® (azelastine hydrochloride (HCl)) 2 sprays per nostril plus FLONASE® (fluticasone propionate) 2 sprays per nostril (AM), 15 minutes apart, and ASTELIN® (azelastine hydrochloride (HCl)) 2 sprays per nostril plus placebo saline nasal spray, 15 minutes apart, (PM) for a 2-week double-blind treatment period.
The most common adverse events (AEs) were bitter taste (8.2% in ASTELIN® (azelastine hydrochloride (HCl)) group, 2.0% in FLONASE® (fluticasone propionate) group, 13.5% in co-administration group) and headache (4.1% in ASTELIN® (azelastine hydrochloride (HCl)) group, 4.0% in FLONASE® (fluticasone propionate) group, 5.8% in co-administration group). No other AE was reported by more than one patient in any treatment group. There were no discontinuations due to AEs.

[1] = Possibly related to study drug, Safety Population
[2] = Probably related to study drug, Safety Population
[3] = Total (possibly or probably related), Safety Population

## CCC(=O)O[C@]1(C(=O)SCF)[C@H](C)C[C@H]2[C@@H]3C[C@H](F)C4=CC(=O)C=C[C@]4(C)[C@@]3(F)[C@@H](O)C[C@@]21C [Fluticasone, fluticasone propionate]
All Randomized Patients
  Primary Reason for Discontinuation From Study: Adverse Event: 0 (0.0) N (%)
Mild
  Number (%) Patients With Treatment-Related AEs by Maximum Severity: 3 (6.0) Number (%)
Moderate
  Number (%) Patients With Treatment-Related AEs by Maximum Severity: 1 (2.0) Number (%)
[1]
  Treatment-Related Adverse Events: Any Adverse Event: 4 (8.0) No. of Patients (%)
  Treatment-Related Adverse Events: DRY MOUTH: 1 (2.0) No. of Patients (%)
  Treatment-Related Adverse Events: DYSGEUSIA: 1 (2.0) No. of Patients (%)
  Treatment-Related Adverse Events: EPISTAXIS: 0 (0.0) No. of Patients (%)
  Treatment-Related Adverse Events: GASTROINTESTINAL DISORDERS, Any Preferred Term: 3 (6.0) No. of Patients (%)
  Treatment-Related Adverse Events: HEADACHE: 1 (2.0) No. of Patients (%)
  Treatment-Related Adverse Events: NASAL DISCOMFORT: 0 (0.0) No. of Patients (%)
  Treatment-Related Adverse Events: NERVOUS SYSTEM DISORDERS, Any Preferred Term: 1 (2.0) No. of Patients (%)
  Treatment-Related Adverse Events: RESPIRATORY, THORACIC AND MEDIASTINAL DISORDERS, Any Preferred Term: 0 (0.0) No. of Patients (%)
  Treatment-Related Adverse Events: STOMACH DISCOMFORT: 1 (2.0) No. of Patients (%)
[2]
  Treatment-Related Adverse Events: Any Adverse Event: 0 (0.0) No. of Patients (%)
  Treatment-Related Adverse Events: DRY MOUTH: 0 (0.0) No. of Patients (%)
  Treatment-Related Adverse Events: DYSGEUSIA: 0 (0.0) No. of Patients (%)
  Treatment-Related Adverse Events: EPISTAXIS: 0 (0.0) No. of Patients (%)
  Treatment-Related Adverse Events: GASTROINTESTINAL DISORDERS, Any Preferred Term: 0 (0.0) No. of Patients (%)
  Treatment-Related Adverse Events: HEADACHE: 0 (0.0) No. of Patients (%)
  Treatment-Related Adverse Events: NASAL DISCOMFORT: 0 (0.0) No. of Patients (%)
  Treatment-Related Adverse Events: NERVOUS SYSTEM DISORDERS, Any Preferred Term: 0 (0.0) No. of Patients (%)
  Treatment-Related Adverse Events: RESPIRATORY, THORACIC AND MEDIASTINAL DISORDERS, Any Preferred Term: 0 (0.0) No. of Patients (%)
  Treatment-Related Adverse Events: STOMACH DISCOMFORT: 0 (0.0) No. of Patients (%)
Safety Population
  Number (%) Patients With Any AEs: All Treatment-Related AEs: 4 (8.0) Number (%)
  Number (%) of Deaths: 0 (0.0) Number (%)
  Number (%) of Patients With Serious AEs: 0 (0.0) Number (%)
  Number of Adverse Events Reported: All Treatment-Emergent AEs: 5
  Number of Adverse Events Reported: All Treatment-Related AEs: 4
Severe
  Number (%) Patients With Treatment-Related AEs by Maximum Severity: 0 (0.0) Number (%)
Total
  Treatment-Emergent AE: Any Adverse Event: 5 (10.0) No. of Patients (%)
  Treatment-Emergent AE: DRY MOUTH: 1 (2.0) No. of Patients (%)
  Treatment-Emergent AE: DYSGEUSIA: 1 (2.0) No. of Patients (%)
  Treatment-Emergent AE: EAR AND LABYRINTH DISORDERS, Any Preferred Term: 0 (0.0) No. of Patients (%)
  Treatment-Emergent AE: EAR PAIN: 0 (0.0) No. of Patients (%)
  Treatment-Emergent AE: EPISTAXIS: 0 (0.0) No. of Patients (%)
  Treatment-Emergent AE: GASTROINTESTINAL DISORDERS, Any Preferred Term: 3 (6.0) No. of Patients (%)
  Treatment-Emergent AE: HEADACHE: 2 (4.0) No. of Patients (%)
  Treatment-Emergent AE: MUSCULOSKELETAL AND CONNECTIVE TISSUE DISORDERS, Any Preferred Term: 0 (0.0) No. of Patients (%)
  Treatment-Emergent AE: MYALGIA: 0 (0.0) No. of Patients (%)
  Treatment-Emergent AE: NASAL DISCOMFORT: 0 (0.0) No. of Patients (%)
  Treatment-Emergent AE: NECK PAIN: 0 (0.0) No. of Patients (%)
  Treatment-Emergent AE: NERVOUS SYSTEM DISORDERS, Any Preferred Term: 2 (4.0) No. of Patients (%)
  Treatment-Emergent AE: PHARYNGOLARYNGEAL PAIN: 0 (0.0) No. of Patients (%)
  Treatment-Emergent AE: RESPIRATORY, THORACIC AND MEDIASTINAL DISORDERS, Any Preferred Term: 0 (0.0) No. of Patients (%)
  Treatment-Emergent AE: STOMACH DISCOMFORT: 1 (2.0) No. of Patients (%)
[3]
  Treatment-Related Adverse Events: Any Adverse Event: 4 (8.0) No. of Patients (%)
  Treatment-Related Adverse Events: DRY MOUTH: 1 (2.0) No. of Patients (%)
  Treatment-Related Adverse Events: DYSGEUSIA: 1 (2.0) No. of Patients (%)
  Treatment-Related Adverse Events: EPISTAXIS: 0 (0.0) No. of Patients (%)
  Treatment-Related Adverse Events: GASTROINTESTINAL DISORDERS, Any Preferred Term: 3 (6.0) No. of Patients (%)
  Treatment-Related Adverse Events: HEADACHE: 1 (2.0) No. of Patients (%)
  Treatment-Related Adverse Events: NASAL DISCOMFORT: 0 (0.0) No. of Patients (%)
  Treatment-Related Adverse Events: NERVOUS SYSTEM DISORDERS, Any Preferred Term: 1 (2.0) No. of Patients (%)
  Treatment-Related Adverse Events: RESPIRATORY, THORACIC AND MEDIASTINAL DISORDERS, Any Preferred Term: 0 (0.0) No. of Patients (%)
  Treatment-Related Adverse Events: STOMACH DISCOMFORT: 1 (2.0) No. of Patients (%)
Max severity Mild
  Treatment-Emergent AE: Any Adverse Event: 4 (8.0) No. of Patients (%)
  Treatment-Emergent AE: DRY MOUTH: 1 (2.0) No. of Patients (%)
  Treatment-Emergent AE: DYSGEUSIA: 1 (2.0) No. of Patients (%)
  Treatment-Emergent AE: EAR AND LABYRINTH DISORDERS, Any Preferred Term: 0 (0.0) No. of Patients (%)
  Treatment-Emergent AE: EAR PAIN: 0 (0.0) No. of Patients (%)
  Treatment-Emergent AE: EPISTAXIS: 0 (0.0) No. of Patients (%)
  Treatment-Emergent AE: GASTROINTESTINAL DISORDERS, Any Preferred Term: 2 (4.0) No. of Patients (%)
  Treatment-Emergent AE: HEADACHE: 2 (4.0) No. of Patients (%)
  Treatment-Emergent AE: MUSCULOSKELETAL AND CONNECTIVE TISSUE DISORDERS, Any Preferred Term: 0 (0.0) No. of Patients (%)
  Treatment-Emergent AE: MYALGIA: 0 (0.0) No. of Patients (%)
  Treatment-Emergent AE: NASAL DISCOMFORT: 0 (0.0) No. of Patients (%)
  Treatment-Emergent AE: NECK PAIN: 0 (0.0) No. of Patients (%)
  Treatment-Emergent AE: NERVOUS SYSTEM DISORDERS, Any Preferred Term: 2 (4.0) No. of Patients (%)
  Treatment-Emergent AE: PHARYNGOLARYNGEAL PAIN: 0 (0.0) No. of Patients (%)
  Treatment-Emergent AE: RESPIRATORY, THORACIC AND MEDIASTINAL DISORDERS, Any Preferred Term: 0 (0.0) No. of Patients (%)
  Treatment-Emergent AE: STOMACH DISCOMFORT: 0 (0.0) No. of Patients (%)
Max severity Moderate
  Treatment-Emergent AE: Any Adverse Event: 1 (2.0) No. of Patients (%)
  Treatment-Emergent AE: DRY MOUTH: 0 (0.0) No. of Patients (%)
  Treatment-Emergent AE: DYSGEUSIA: 0 (0.0) No. of Patients (%)
  Treatment-Emergent AE: EAR AND LABYRINTH DISORDERS, Any Preferred Term: 0 (0.0) No. of Patients (%)
  Treatment-Emergent AE: EAR PAIN: 0 (0.0) No. of Patients (%)
  Treatment-Emergent AE: EPISTAXIS: 0 (0.0) No. of Patients (%)
  Treatment-Emergent AE: GASTROINTESTINAL DISORDERS, Any Preferred Term: 1 (2.0) No. of Patients (%)
  Treatment-Emergent AE: HEADACHE: 0 (0.0) No. of Patients (%)
  Treatment-Emergent AE: MUSCULOSKELETAL AND CONNECTIVE TISSUE DISORDERS, Any Preferred Term: 0 (0.0) No. of Patients (%)
  Treatment-Emergent AE: MYALGIA: 0 (0.0) No. of Patients (%)
  Treatment-Emergent AE: NASAL DISCOMFORT: 0 (0.0) No. of Patients (%)
  Treatment-Emergent AE: NECK PAIN: 0 (0.0) No. of Patients (%)
  Treatment-Emergent AE: NERVOUS SYSTEM DISORDERS, Any Preferred Term: 0 (0.0) No. of Patients (%)
  Treatment-Emergent AE: PHARYNGOLARYNGEAL PAIN: 0 (0.0) No. of Patients (%)
  Treatment-Emergent AE: RESPIRATORY, THORACIC AND MEDIASTINAL DISORDERS, Any Preferred Term: 0 (0.0) No. of Patients (%)
  Treatment-Emergent AE: STOMACH DISCOMFORT: 1 (2.0) No. of Patients (%)
Max severity Severe
  Treatment-Emergent AE: Any Adverse Event: 0 (0.0) No. of Patients (%)
  Treatment-Emergent AE: DRY MOUTH: 0 (0.0) No. of Patients (%)
  Treatment-Emergent AE: DYSGEUSIA: 0 (0.0) No. of Patients (%)
  Treatment-Emergent AE: EAR AND LABYRINTH DISORDERS, Any Preferred Term: 0 (0.0) No. of Patients (%)
  Treatment-Emergent AE: EAR PAIN: 0 (0.0) No. of Patients (%)
  Treatment-Emergent AE: EPISTAXIS: 0 (0.0) No. of Patients (%)
  Treatment-Emergent AE: GASTROINTESTINAL DISORDERS, Any Preferred Term: 0 (0.0) No. of Patients (%)
  Treatment-Emergent AE: HEADACHE: 0 (0.0) No. of Patients (%)
  Treatment-Emergent AE: MUSCULOSKELETAL AND CONNECTIVE TISSUE DISORDERS, Any Preferred Term: 0 (0.0) No. of Patients (%)
  Treatment-Emergent AE: MYALGIA: 0 (0.0) No. of Patients (%)
  Treatment-Emergent AE: NASAL DISCOMFORT: 0 (0.0) No. of Patients (%)
  Treatment-Emergent AE: NECK PAIN: 0 (0.0) No. of Patients (%)
  Treatment-Emergent AE: NERVOUS SYSTEM DISORDERS, Any Preferred Term: 0 (0.0) No. of Patients (%)
  Treatment-Emergent AE: PHARYNGOLARYNGEAL PAIN: 0 (0.0) No. of Patients (%)
  Treatment-Emergent AE: RESPIRATORY, THORACIC AND MEDIASTINAL DISORDERS, Any Preferred Term: 0 (0.0) No. of Patients (%)
  Treatment-Emergent AE: STOMACH DISCOMFORT: 0 (0.0) No. of Patients (%)
Share of treatment group
  adverse event: bitter taste: 2.0%
  adverse event: headache: 4.0%
